Measured values: patent US9302999B2, “Substituted triazoles as herbicides” (E. I. DU PONT DE NEMOURS AND COMPANY, priority 2012, dated 2016)

How the values were obtained:
Assay type in all cases: in vivo
[1] = test system: sedge, umbrella (small-flower umbrella sedge, Cyperus difformis); assay: Test C flooded paddy test: sedge, umbrella; settings: scale 0 to 100 (0 no effect, 100 complete control)
Procedure, shortened: (§1)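 Rating: visual, 0–100 (100 = complete control), versus untreated controls after 13 to 15 greenhouse days. Treatment went into paddy water held at 3 cm over the soil, on plants grown to two leaves.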

[2] = test system: barnyardgrass (Echinochloa crus-galli); assay: Test A pre-/postemergence: barnyardgrass; settings: for Barnyardgrass plant response rating: Postemergence; for Plant response rating, Barnyardgrass: Preemergence
Procedure, shortened: (§2)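 Injury was scored visually on a 0 (no effect) to 100 (complete control) scale versus untreated controls roughly ten days after treatment in the greenhouse. Compounds, formulated in surfactant-containing non-phytotoxic solvent, went on as soil-directed preemergence spray or postemergence to one- to two-leaf plants 2–10 cm tall.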

[3] = test system: barnyardgrass (Echinochloa crus-galli); assay: Test C flooded paddy test: barnyardgrass; settings: scale 0 to 100 (0 no effect, 100 complete control)
Procedure, shortened: as §1

[4] = test system: wheat (Triticum aestivum); assay: Test A pre-/postemergence: wheat; settings: for Wheat plant response rating: Postemergence; for Plant response rating, Wheat: Preemergence
Procedure, shortened: as §2

[5] = test system: crabgrass, large (large crabgrass, Digitaria sanguinalis); assay: Test A pre-/postemergence: crabgrass, large; settings: for Crabgrass, Large plant response rating: Postemergence; for Plant response rating, Crabgrass, Large: Preemergence
Procedure, shortened: as §2

[6] = test system: velvetleaf (Abutilon theophrasti); assay: Test A pre-/postemergence: velvetleaf; settings: for Velvetleaf plant response rating: Postemergence; for Plant response rating, Velvetleaf: Preemergence
Procedure, shortened: as §2

[7] = test system: rice (Oryza sativa); assay: Test C flooded paddy test: rice; settings: scale 0 to 100 (0 no effect, 100 complete control)
Procedure, shortened: as §1

[8] = test system: ducksalad (Heteranthera limosa); assay: Test C flooded paddy test: ducksalad; settings: scale 0 to 100 (0 no effect, 100 complete control)
Procedure, shortened: as §1

[9] = test system: corn (Zea mays); assay: Test A pre-/postemergence: corn; settings: for Corn plant response rating: Postemergence; for Plant response rating, Corn: Preemergence
Procedure, shortened: as §2

[10] = test system: pigweed (Amaranthus retroflexus); assay: Test A pre-/postemergence: pigweed; settings: for Pigweed plant response rating: Postemergence; for Plant response rating, Pigweed: Preemergence
Procedure, shortened: as §2

[11] = test system: morningglory (Ipomoea spp.); assay: Test A pre-/postemergence: morningglory; settings: for Morningglory plant response rating: Postemergence; for Plant response rating, Morningglory: Preemergence
Procedure, shortened: as §2

[12] = test system: foxtail, giant (giant foxtail, Setaria faberii); assay: Test A pre-/postemergence: foxtail, giant; settings: for Foxtail, Giant plant response rating: Postemergence; for Plant response rating, Foxtail, Giant: Preemergence
Procedure, shortened: as §2

[13] = Flood (flooded paddy test), 62 g ai/ha, visual rating after 13 to 15 days
[14] = Flood (flooded paddy test), 125 g ai/ha, visual rating after 13 to 15 days
[15] = Flood (flooded paddy test), 250 g ai/ha, visual rating after 13 to 15 days
[16] = 125 g ai/ha, 0 to 100 scale, 0 is no effect, 100 is complete control
[17] = 500 g ai/ha, visual rating on 0 to 100 scale (0 no effect, 100 complete control), approximately ten days
[18] = 125 g ai/ha, 0 to 100 scale (0 no effect, 100 complete control)
[19] = 500 g ai/ha, 0 to 100 scale, 0 is no effect, 100 is complete control

Cc1nn(-c2ccc(F)cc2)nc1Oc1ccnc(OCC(F)(F)F)c1 [Compound 71]
Plant response rating, Sedge, Umbrella [1, 13]: 0
Plant response rating, Sedge, Umbrella [1, 14]: 0
Plant response rating, Sedge, Umbrella [1, 15]: 0
Plant response rating, Sedge, Umbrella ([1]; Flood, 31 g ai/ha): 0
Barnyardgrass plant response rating [2, 16]: 0
Barnyardgrass plant response rating [2, 17]: 10
Plant response rating, Barnyardgrass [2, 18]: 0
Plant response rating, Barnyardgrass [2, 19]: 0
Plant response rating, Barnyardgrass [3, 13]: 0
Plant response rating, Barnyardgrass [3, 14]: 0
Plant response rating, Barnyardgrass [3, 15]: 0
Plant response rating, Barnyardgrass ([3]; Flood, 31 g ai/ha): 0
Wheat plant response rating [4, 16]: 0
Wheat plant response rating [4, 17]: 0
Plant response rating, Wheat [4, 18]: 0
Plant response rating, Wheat [4, 19]: 0
Crabgrass, Large plant response rating [5, 16]: 10
Crabgrass, Large plant response rating [5, 17]: 10
Plant response rating, Crabgrass, Large [5, 18]: 0
Plant response rating, Crabgrass, Large [5, 19]: 10
Velvetleaf plant response rating [6, 16]: 0
Velvetleaf plant response rating [6, 17]: 10
Plant response rating, Velvetleaf [6, 18]: 0
Plant response rating, Velvetleaf [6, 19]: 0
Plant response rating, Rice [7, 13]: 0
Plant response rating, Rice [7, 14]: 0
Plant response rating, Rice [7, 15]: 0
Plant response rating, Rice ([7]; Flood, 31 g ai/ha): 0
Plant response rating, Ducksalad [8, 13]: 0
Plant response rating, Ducksalad [8, 14]: 0
Plant response rating, Ducksalad [8, 15]: 0
Plant response rating, Ducksalad ([8]; Flood, 31 g ai/ha): 0
Corn plant response rating [9, 16]: 0
Corn plant response rating [9, 17]: 10
Plant response rating, Corn [9, 18]: 0
Plant response rating, Corn [9, 19]: 0
Pigweed plant response rating [10, 16]: 10
Pigweed plant response rating [10, 17]: 40
Plant response rating, Pigweed [10, 18]: 0
Plant response rating, Pigweed [10, 19]: 0
Morningglory plant response rating [11, 16]: 10
Morningglory plant response rating [11, 17]: 10
Plant response rating, Morningglory [11, 18]: 0
Plant response rating, Morningglory [11, 19]: 0
Foxtail, Giant plant response rating [12, 16]: 10
Foxtail, Giant plant response rating [12, 17]: 10
Plant response rating, Foxtail, Giant [12, 18]: 0
Plant response rating, Foxtail, Giant [12, 19]: 0

Cc1nn(-c2ccc(Cl)cc2)nc1C(=O)c1cccc(C(F)(F)F)c1 [Compound 42]
Plant response rating, Sedge, Umbrella [1, 13]: 0
Plant response rating, Sedge, Umbrella [1, 15]: 0
Barnyardgrass plant response rating [2, 16]: 0
Barnyardgrass plant response rating [2, 17]: 10
Plant response rating, Barnyardgrass [2, 18]: 0
Plant response rating, Barnyardgrass [2, 19]: 10
Plant response rating, Barnyardgrass [3, 13]: 0
Plant response rating, Barnyardgrass [3, 15]: 0
Wheat plant response rating [4, 16]: 0
Wheat plant response rating [4, 17]: 10
Plant response rating, Wheat [4, 18]: 0
Plant response rating, Wheat [4, 19]: 0
Crabgrass, Large plant response rating [5, 16]: 10
Crabgrass, Large plant response rating [5, 17]: 30
Plant response rating, Crabgrass, Large [5, 18]: 10
Plant response rating, Crabgrass, Large [5, 19]: 50
Velvetleaf plant response rating [6, 16]: 10
Velvetleaf plant response rating [6, 17]: 20
Plant response rating, Velvetleaf [6, 18]: 0
Plant response rating, Velvetleaf [6, 19]: 0
Plant response rating, Rice [7, 13]: 0
Plant response rating, Rice [7, 15]: 0
Plant response rating, Ducksalad [8, 13]: 0
Plant response rating, Ducksalad [8, 15]: 0
Corn plant response rating [9, 16]: 10
Corn plant response rating [9, 17]: 10
Plant response rating, Corn [9, 18]: 0
Plant response rating, Corn [9, 19]: 0
Pigweed plant response rating [10, 16]: 50
Pigweed plant response rating [10, 17]: 90
Plant response rating, Pigweed [10, 18]: 10
Plant response rating, Pigweed [10, 19]: 60
Morningglory plant response rating [11, 16]: 10
Morningglory plant response rating [11, 17]: 50
Plant response rating, Morningglory [11, 18]: 0
Plant response rating, Morningglory [11, 19]: 10
Foxtail, Giant plant response rating [12, 16]: 10
Foxtail, Giant plant response rating [12, 17]: 20
Plant response rating, Foxtail, Giant [12, 18]: 10
Plant response rating, Foxtail, Giant [12, 19]: 70

Cc1nn(-c2ccc(C(F)(F)F)cc2)nc1Oc1ccccc1Cl [Compound 82]
Plant response rating, Sedge, Umbrella [1, 14]: 0
Plant response rating, Sedge, Umbrella [1, 15]: 0
Plant response rating, Sedge, Umbrella ([1]; Flood, 31 g ai/ha): 0
Plant response rating, Sedge, Umbrella ([1]; Flood, 62 g ai/ha): 0
Barnyardgrass plant response rating [2, 16]: 0
Barnyardgrass plant response rating [2, 17]: 0
Plant response rating, Barnyardgrass [2, 18]: 0
Plant response rating, Barnyardgrass [2, 19]: 0
Plant response rating, Barnyardgrass [3, 14]: 0
Plant response rating, Barnyardgrass [3, 15]: 0
Plant response rating, Barnyardgrass ([3]; Flood, 31 g ai/ha): 0
Plant response rating, Barnyardgrass ([3]; Flood, 62 g ai/ha): 0
Wheat plant response rating [4, 16]: 0
Wheat plant response rating [4, 17]: 0
Plant response rating, Wheat [4, 18]: 0
Plant response rating, Wheat [4, 19]: 0
Crabgrass, Large plant response rating [5, 16]: 0
Crabgrass, Large plant response rating [5, 17]: 0
Plant response rating, Crabgrass, Large [5, 18]: 0
Plant response rating, Crabgrass, Large [5, 19]: 0
Velvetleaf plant response rating [6, 16]: 0
Velvetleaf plant response rating [6, 17]: 0
Plant response rating, Velvetleaf [6, 18]: 0
Plant response rating, Velvetleaf [6, 19]: 0
Plant response rating, Rice [7, 14]: 0
Plant response rating, Rice [7, 15]: 0
Plant response rating, Rice ([7]; Flood, 31 g ai/ha): 0
Plant response rating, Rice ([7]; Flood, 62 g ai/ha): 0
Plant response rating, Ducksalad [8, 14]: 0
Plant response rating, Ducksalad [8, 15]: 0
Plant response rating, Ducksalad ([8]; Flood, 31 g ai/ha): 0
Plant response rating, Ducksalad ([8]; Flood, 62 g ai/ha): 0
Corn plant response rating [9, 16]: 0
Corn plant response rating [9, 17]: 0
Plant response rating, Corn [9, 18]: 0
Plant response rating, Corn [9, 19]: 0
Pigweed plant response rating [10, 16]: 0
Pigweed plant response rating [10, 17]: 0
Plant response rating, Pigweed [10, 18]: 0
Plant response rating, Pigweed [10, 19]: 0
Morningglory plant response rating [11, 16]: 0
Morningglory plant response rating [11, 17]: 0
Plant response rating, Morningglory [11, 18]: 0
Plant response rating, Morningglory [11, 19]: 0
Foxtail, Giant plant response rating [12, 16]: 0
Foxtail, Giant plant response rating [12, 17]: 0
Plant response rating, Foxtail, Giant [12, 18]: 0
Plant response rating, Foxtail, Giant [12, 19]: 0

Cc1nn(-c2ccc(C(F)(F)F)cn2)nc1Cn1ccc(C(F)(F)F)n1 [Compound 7]
Plant response rating, Sedge, Umbrella [1, 13]: 40
Plant response rating, Sedge, Umbrella [1, 14]: 50
Plant response rating, Sedge, Umbrella [1, 15]: 85
Plant response rating, Sedge, Umbrella ([1]; Flood, 31 g ai/ha): 30
Barnyardgrass plant response rating [2, 16]: 30
Barnyardgrass plant response rating [2, 17]: 90
Plant response rating, Barnyardgrass [2, 18]: 40
Plant response rating, Barnyardgrass [2, 19]: 100
Plant response rating, Barnyardgrass [3, 13]: 0
Plant response rating, Barnyardgrass [3, 14]: 0
Plant response rating, Barnyardgrass [3, 15]: 20
Plant response rating, Barnyardgrass ([3]; Flood, 31 g ai/ha): 0
Wheat plant response rating [4, 16]: 0
Wheat plant response rating [4, 17]: 20
Plant response rating, Wheat [4, 18]: 0
Plant response rating, Wheat [4, 19]: 0
Crabgrass, Large plant response rating [5, 16]: 70
Crabgrass, Large plant response rating [5, 17]: 90
Plant response rating, Crabgrass, Large [5, 18]: 100
Plant response rating, Crabgrass, Large [5, 19]: 100
Velvetleaf plant response rating [6, 16]: 30
Velvetleaf plant response rating [6, 17]: 70
Plant response rating, Velvetleaf [6, 18]: 30
Plant response rating, Velvetleaf [6, 19]: 60
Plant response rating, Rice [7, 13]: 0
Plant response rating, Rice [7, 14]: 0
Plant response rating, Rice [7, 15]: 15
Plant response rating, Rice ([7]; Flood, 31 g ai/ha): 0
Plant response rating, Ducksalad [8, 13]: 0
Plant response rating, Ducksalad [8, 14]: 30
Plant response rating, Ducksalad [8, 15]: 70
Plant response rating, Ducksalad ([8]; Flood, 31 g ai/ha): 0
Corn plant response rating [9, 16]: 10
Corn plant response rating [9, 17]: 50
Plant response rating, Corn [9, 18]: 0
Plant response rating, Corn [9, 19]: 30
Pigweed plant response rating [10, 16]: 100
Pigweed plant response rating [10, 17]: 100
Plant response rating, Pigweed [10, 18]: 100
Plant response rating, Pigweed [10, 19]: 100
Morningglory plant response rating [11, 16]: 90
Morningglory plant response rating [11, 17]: 90
Plant response rating, Morningglory [11, 18]: 30
Plant response rating, Morningglory [11, 19]: 80
Foxtail, Giant plant response rating [12, 16]: 50
Foxtail, Giant plant response rating [12, 17]: 90
Plant response rating, Foxtail, Giant [12, 18]: 90
Plant response rating, Foxtail, Giant [12, 19]: 100
